PubChem BioAssay (NCI)
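1) Cells in 96-well plates. 2) Compound, 48 h, 5 concentrations. 3) Linear interpolation between surrounding doses. 4) Unreached endpoint = highest concentration. TGI is the concentration that stops growth completely.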

How the values were obtained:
Experiment in all cases: inhibition of tumour cell growth, NCI panel, 48 h
[1] = test system: KM20L2 colon
[2] = test system: XF 498 CNS
[3] = test system: DMS 114 small cell lung
[4] = test system: HOP-18 NSCLC
[5] = test system: RXF-631 renal
[6] = test system: LXFL 529 NSCLC
[7] = test system: DMS 273 small cell lung
[8] = test system: DLD-1 colon

SMILES | TGI [1] [µM] | TGI [2] [µM] | TGI [3] [µM] | TGI [4] [µM] | TGI [5] [µM] | TGI [6] [µM] | TGI [7] [µM] | TGI [8] [µM]
CN1C(=O)n2c(nc3ccccc32)C(N=[N+]=[N-])(N=[N+]=[N-])C1=O (centres undefined) | > 100 | > 100 | > 100 | > 100 | > 100 | > 100 | > 100 | > 100
CS(=O)(=O)c1nc(N)nc2nc[nH]c12 | > 100 | > 100 | > 100 | > 100 | – | > 100 | > 100 | > 100
CC(C#N)c1cn(S(=O)(=O)c2ccccc2)c2ccccc12 (centres undefined) | > 100 | > 100 | > 100 | – | – | > 100 | > 100 | > 100
C[C@]12CCC3c4ccc(OC(=O)c5ccccc5)cc4CC[C@H]3C1CC[C@@H]2OC(=O)C12OC1CCC2=O (some centres undefined) | 11.9 | 11.1 | 6.7 | 10.7 | – | 3.76 | 9.52 | 6.37
CCN1C(C)=NC2C(=O)c3ccccc3C(=O)C21 (centres undefined) | 68.2 | > 100 | > 100 | – | > 100 | > 100 | > 100 | –
